The kinase profiling compilation of Christmann-Franck et al. (2016)

How the values were obtained:
Experiment in all cases: radiometric filter-binding kinase assay, Kinase HotSpot
Settings in all cases: compound 0.5 µM; ATP 10 µM
[1] = target: ROCK2 (human) (UniProt O75116)
[2] = target: CDK5 CDK5R1 p25 (human) (UniProt Q00535+Q15078)
[3] = target: IKBKB (human) (UniProt O14920)
[4] = target: MAPKAPK5 (human) (UniProt Q8IW41)
[5] = target: AKT3 (human) (UniProt Q9Y243)
[6] = target: RPS6KB2 (human) (UniProt Q9UBS0)
[7] = target: CDC42BPA (human) (UniProt Q5VT25)
[8] = target: MKNK2 (human) (UniProt Q9HBH9)
[9] = target: CLK3 (human) (UniProt P49761)
[10] = target: PAK4 (human) (UniProt O96013)
[11] = target: PDGFRB (human) (UniProt P09619)
[12] = target: PRKCB2 (human) (UniProt P05771)
[13] = target: CSNK1G1 (human) (UniProt Q9HCP0)
[14] = target: PRKCI (human) (UniProt P41743)
[15] = target: ADRBK2 (human) (UniProt P35626)
[16] = target: EPHA2 (human) (UniProt P29317)
[17] = target: MAP3K3 (human) (UniProt Q99759)
[18] = target: PAK2 (human) (UniProt Q13177)
[19] = target: FER (human) (UniProt P16591)
[20] = target: INSRR (human) (UniProt P14616)
[21] = target: VRK1 (human) (UniProt Q99986)
[22] = target: CHUK (human) (UniProt O15111)
[23] = target: PAK1 (human) (UniProt Q13153)
[24] = target: PRKG2 (human) (UniProt Q13237)
[25] = target: TSSK2 (human) (UniProt Q96PF2)
[26] = target: MAPK8 (human) (UniProt P45983)
[27] = target: CDK9 CCNT1 (human) (UniProt P50750+O60563)
[28] = target: ALK (human) (UniProt Q9UM73)
[29] = target: EPHA5 (human) (UniProt P54756)
[30] = target: MAPK9 (human) (UniProt P45984)
[31] = target: RPS6KA4 KD2 (human) (UniProt O75676)
[32] = target: MAPK13 (human) (UniProt O15264)
[33] = target: PRKX (human) (UniProt P51817)
[34] = target: SRPK1 (human) (UniProt Q96SB4)
[35] = target: CAMK1 (human) (UniProt Q14012)
[36] = target: WNK3 (human) (UniProt Q9BYP7)
[37] = target: FGR (human) (UniProt P09769)
[38] = target: SYK (human) (UniProt P43405)
[39] = target: ROCK1 (human) (UniProt Q13464)
[40] = target: PAK3 (human) (UniProt O75914)
[41] = target: MET (human) (UniProt P08581)
[42] = target: GRK6 (human) (UniProt P43250)

PAK3 (human), sequence (O75914 whole entry, looked up): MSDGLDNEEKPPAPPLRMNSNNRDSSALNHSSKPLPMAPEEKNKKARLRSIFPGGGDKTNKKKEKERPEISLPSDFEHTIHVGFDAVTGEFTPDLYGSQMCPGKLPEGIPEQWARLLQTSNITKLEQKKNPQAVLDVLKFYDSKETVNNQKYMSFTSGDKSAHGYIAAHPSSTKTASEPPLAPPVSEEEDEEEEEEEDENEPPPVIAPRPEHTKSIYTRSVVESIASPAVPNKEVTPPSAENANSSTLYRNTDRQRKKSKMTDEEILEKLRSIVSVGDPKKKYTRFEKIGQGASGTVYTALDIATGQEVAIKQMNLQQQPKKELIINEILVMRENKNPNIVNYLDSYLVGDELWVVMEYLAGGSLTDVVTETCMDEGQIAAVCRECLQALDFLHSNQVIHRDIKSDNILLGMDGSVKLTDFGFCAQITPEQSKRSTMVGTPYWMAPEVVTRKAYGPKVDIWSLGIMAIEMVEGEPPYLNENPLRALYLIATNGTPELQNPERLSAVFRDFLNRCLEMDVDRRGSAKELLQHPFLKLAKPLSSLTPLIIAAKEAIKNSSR
MAPK9 (human), sequence (P45984 whole entry, looked up): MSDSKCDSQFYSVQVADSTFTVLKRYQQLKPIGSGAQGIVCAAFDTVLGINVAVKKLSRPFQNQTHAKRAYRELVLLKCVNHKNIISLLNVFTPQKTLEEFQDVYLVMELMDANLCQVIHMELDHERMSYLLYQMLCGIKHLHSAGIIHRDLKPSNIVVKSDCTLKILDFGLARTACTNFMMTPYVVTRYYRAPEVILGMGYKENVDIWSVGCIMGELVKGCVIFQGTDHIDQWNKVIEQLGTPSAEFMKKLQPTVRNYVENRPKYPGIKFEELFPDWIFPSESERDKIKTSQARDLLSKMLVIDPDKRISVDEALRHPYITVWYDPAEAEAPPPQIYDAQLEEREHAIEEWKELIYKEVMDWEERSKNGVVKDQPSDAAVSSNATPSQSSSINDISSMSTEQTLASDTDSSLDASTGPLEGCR
FER (human), sequence (P16591 whole entry, looked up): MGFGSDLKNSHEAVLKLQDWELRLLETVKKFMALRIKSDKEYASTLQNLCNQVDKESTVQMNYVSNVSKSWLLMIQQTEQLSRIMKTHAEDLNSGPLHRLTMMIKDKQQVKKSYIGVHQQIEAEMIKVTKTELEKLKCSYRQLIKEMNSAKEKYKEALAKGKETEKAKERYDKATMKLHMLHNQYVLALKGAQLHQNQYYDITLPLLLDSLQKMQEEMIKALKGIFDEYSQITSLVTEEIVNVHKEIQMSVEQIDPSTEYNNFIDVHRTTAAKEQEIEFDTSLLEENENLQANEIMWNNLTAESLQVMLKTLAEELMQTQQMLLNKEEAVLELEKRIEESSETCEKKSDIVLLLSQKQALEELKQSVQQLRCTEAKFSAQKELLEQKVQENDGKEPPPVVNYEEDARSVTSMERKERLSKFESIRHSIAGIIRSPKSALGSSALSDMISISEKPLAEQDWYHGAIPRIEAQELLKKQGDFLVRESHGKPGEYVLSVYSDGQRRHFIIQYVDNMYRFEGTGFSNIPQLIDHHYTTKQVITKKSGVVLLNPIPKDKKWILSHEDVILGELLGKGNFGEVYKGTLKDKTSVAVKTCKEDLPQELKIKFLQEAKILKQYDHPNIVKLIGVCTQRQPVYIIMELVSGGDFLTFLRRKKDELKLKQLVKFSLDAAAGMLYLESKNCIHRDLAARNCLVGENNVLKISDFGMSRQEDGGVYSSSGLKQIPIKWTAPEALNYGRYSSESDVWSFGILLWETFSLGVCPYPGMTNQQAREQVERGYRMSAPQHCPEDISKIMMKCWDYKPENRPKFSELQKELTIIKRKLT
IKBKB (human), sequence (O14920 whole entry, looked up): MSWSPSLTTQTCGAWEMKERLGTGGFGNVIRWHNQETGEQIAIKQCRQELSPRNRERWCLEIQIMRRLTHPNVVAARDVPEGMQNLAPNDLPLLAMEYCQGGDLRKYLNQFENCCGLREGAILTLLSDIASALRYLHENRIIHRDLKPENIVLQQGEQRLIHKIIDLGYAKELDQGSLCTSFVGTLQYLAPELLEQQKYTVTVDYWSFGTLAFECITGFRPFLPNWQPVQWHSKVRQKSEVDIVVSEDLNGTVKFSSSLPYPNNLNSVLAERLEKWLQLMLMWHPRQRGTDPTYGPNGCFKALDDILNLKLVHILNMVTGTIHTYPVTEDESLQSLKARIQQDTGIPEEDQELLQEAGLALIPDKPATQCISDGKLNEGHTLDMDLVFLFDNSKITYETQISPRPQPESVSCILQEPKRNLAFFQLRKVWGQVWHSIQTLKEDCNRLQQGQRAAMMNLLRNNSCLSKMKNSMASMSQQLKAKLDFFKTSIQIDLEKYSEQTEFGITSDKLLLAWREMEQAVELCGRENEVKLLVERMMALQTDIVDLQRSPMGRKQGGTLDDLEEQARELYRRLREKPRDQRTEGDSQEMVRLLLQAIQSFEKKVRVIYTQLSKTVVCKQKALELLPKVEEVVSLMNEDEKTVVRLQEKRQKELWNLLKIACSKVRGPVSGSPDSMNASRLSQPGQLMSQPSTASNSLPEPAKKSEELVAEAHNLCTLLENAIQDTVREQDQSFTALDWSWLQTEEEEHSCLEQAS
ROCK2 (human), sequence (O75116 whole entry, looked up): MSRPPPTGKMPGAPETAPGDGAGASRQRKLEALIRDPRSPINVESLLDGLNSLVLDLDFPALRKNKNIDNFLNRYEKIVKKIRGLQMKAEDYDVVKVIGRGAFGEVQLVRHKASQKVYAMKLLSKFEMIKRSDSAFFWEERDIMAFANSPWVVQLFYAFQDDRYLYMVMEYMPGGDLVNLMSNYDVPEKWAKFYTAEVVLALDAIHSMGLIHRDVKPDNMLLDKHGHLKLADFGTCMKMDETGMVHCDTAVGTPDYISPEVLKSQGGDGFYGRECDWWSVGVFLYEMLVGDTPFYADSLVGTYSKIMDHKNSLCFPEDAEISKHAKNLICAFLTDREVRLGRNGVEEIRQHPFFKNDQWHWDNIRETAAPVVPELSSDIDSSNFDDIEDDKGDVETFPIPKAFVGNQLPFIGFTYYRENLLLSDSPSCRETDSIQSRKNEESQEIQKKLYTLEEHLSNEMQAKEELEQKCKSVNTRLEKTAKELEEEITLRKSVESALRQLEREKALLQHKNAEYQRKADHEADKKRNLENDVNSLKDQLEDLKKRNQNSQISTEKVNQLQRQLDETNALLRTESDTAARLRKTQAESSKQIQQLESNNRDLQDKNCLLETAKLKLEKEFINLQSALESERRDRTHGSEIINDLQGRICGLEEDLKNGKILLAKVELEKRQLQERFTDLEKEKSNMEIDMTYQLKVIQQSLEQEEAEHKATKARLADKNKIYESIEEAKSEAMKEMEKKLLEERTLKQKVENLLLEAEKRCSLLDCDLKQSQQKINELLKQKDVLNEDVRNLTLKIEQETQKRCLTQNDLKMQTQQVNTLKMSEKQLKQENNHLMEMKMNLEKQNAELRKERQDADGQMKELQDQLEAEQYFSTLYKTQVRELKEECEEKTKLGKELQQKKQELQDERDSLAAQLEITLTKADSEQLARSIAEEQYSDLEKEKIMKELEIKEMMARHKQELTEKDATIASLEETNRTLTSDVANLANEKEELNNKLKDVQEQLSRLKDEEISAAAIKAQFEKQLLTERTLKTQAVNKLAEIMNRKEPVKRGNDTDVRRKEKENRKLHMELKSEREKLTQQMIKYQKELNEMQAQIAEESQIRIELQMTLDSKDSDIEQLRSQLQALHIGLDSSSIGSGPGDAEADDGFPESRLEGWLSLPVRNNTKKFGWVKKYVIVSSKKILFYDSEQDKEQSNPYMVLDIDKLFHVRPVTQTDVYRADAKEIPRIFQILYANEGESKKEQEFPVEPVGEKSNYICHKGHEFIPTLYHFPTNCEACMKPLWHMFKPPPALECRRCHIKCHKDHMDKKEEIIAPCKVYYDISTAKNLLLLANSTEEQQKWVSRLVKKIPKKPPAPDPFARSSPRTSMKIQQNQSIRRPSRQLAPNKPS
CDK9 CCNT1 (human), sequence (O60563 whole entry, looked up): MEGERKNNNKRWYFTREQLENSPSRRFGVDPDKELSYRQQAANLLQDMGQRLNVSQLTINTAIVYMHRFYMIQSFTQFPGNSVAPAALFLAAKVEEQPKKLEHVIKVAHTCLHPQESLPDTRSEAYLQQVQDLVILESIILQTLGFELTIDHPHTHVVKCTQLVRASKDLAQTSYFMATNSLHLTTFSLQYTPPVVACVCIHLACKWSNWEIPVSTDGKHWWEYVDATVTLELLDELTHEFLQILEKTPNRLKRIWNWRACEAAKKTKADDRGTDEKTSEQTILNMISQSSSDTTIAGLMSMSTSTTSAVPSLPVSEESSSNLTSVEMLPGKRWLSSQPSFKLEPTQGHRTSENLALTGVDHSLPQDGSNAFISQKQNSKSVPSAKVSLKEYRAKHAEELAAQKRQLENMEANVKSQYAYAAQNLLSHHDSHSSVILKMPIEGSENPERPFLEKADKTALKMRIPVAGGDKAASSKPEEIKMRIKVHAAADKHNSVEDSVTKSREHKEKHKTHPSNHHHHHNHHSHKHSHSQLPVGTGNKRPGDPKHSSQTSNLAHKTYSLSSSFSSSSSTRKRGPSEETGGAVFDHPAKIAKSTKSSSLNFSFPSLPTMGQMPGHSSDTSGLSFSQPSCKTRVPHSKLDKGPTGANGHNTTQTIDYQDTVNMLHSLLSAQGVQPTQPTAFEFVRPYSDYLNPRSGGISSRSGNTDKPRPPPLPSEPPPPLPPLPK
CDK9 CCNT1 (human), sequence (P50750 whole entry, looked up): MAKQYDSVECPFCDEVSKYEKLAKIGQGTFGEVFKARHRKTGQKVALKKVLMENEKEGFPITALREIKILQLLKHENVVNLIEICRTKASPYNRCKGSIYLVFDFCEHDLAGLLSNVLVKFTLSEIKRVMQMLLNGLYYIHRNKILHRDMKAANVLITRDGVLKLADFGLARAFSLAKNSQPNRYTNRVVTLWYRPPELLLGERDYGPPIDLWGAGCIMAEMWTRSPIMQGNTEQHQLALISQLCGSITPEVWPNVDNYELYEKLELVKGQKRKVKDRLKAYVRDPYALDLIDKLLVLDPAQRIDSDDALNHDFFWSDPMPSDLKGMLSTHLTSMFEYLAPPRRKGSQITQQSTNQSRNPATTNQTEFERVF

CCc1nc(-c2ccc(OC)cc2)[nH]c1-c1ccncc1
residual activity [1]: 101%
residual activity [2]: 95.9%
residual activity [3]: 106%
residual activity [4]: 95.2%
residual activity [5]: 101%
residual activity [6]: 95.6%
residual activity [7]: 96.3%
residual activity [8]: 88.2%
residual activity [9]: 95.6%
residual activity [10]: 118%
residual activity [11]: 105%
residual activity [12]: 109%
residual activity [13]: 101%
residual activity [14]: 101%
residual activity [15]: 98.4%
residual activity [16]: 102%
residual activity [17]: 99%
residual activity [18]: 90.7%
residual activity [19]: 96.4%
residual activity [20]: 102%
residual activity [21]: 104%
residual activity [22]: 104%
residual activity [23]: 99.3%
residual activity [24]: 91.9%
residual activity [25]: 98.7%
residual activity [26]: 98.9%
residual activity [27]: 88.5%
residual activity [28]: 106%
residual activity [29]: 100%
residual activity [30]: 101%
residual activity [31]: 98.6%
residual activity [32]: 112%
residual activity [33]: 93.3%
residual activity [34]: 106%
residual activity [35]: 108%
residual activity [36]: 97.3%
residual activity [37]: 97.2%
residual activity [38]: 98.7%
residual activity [39]: 105%
residual activity [40]: 103%
residual activity [41]: 97.7%

FC(F)(F)c1ccc(/C=C/c2nc(COc3ccc(CCCCn4ccnn4)cc3)co2)cc1
residual activity [1]: 99.7%
residual activity [3]: 98.6%
residual activity [4]: 101%
residual activity [5]: 96.3%
residual activity [6]: 103%
residual activity [7]: 103%
residual activity [8]: 101%
residual activity [9]: 92.2%
residual activity [10]: 107%
residual activity [11]: 98.1%
residual activity [12]: 93.1%
residual activity [13]: 100%
residual activity [14]: 92.6%
residual activity [15]: 104%
residual activity [16]: 102%
residual activity [17]: 112%
residual activity [18]: 113%
residual activity [19]: 102%
residual activity [20]: 101%
residual activity [21]: 99.8%
residual activity [22]: 96.8%
residual activity [23]: 104%
residual activity [24]: 89.9%
residual activity [25]: 100%
residual activity [26]: 105%
residual activity [27]: 99.5%
residual activity [28]: 108%
residual activity [29]: 99.9%
residual activity [30]: 106%
residual activity [31]: 105%
residual activity [42]: 104%
residual activity [32]: 99.1%
residual activity [33]: 95.3%
residual activity [34]: 98.1%
residual activity [35]: 105%
residual activity [36]: 98.5%
residual activity [37]: 92.6%
residual activity [38]: 97.4%
residual activity [39]: 100%
residual activity [40]: 101%
residual activity [41]: 95.1%

N#Cc1c(NC(=O)c2cccc3ccccc23)sc2c1CCCC2
residual activity [1]: 98%
residual activity [2]: 100%
residual activity [3]: 97%
residual activity [4]: 96.6%
residual activity [5]: 99.6%
residual activity [6]: 100%
residual activity [7]: 103%
residual activity [8]: 106%
residual activity [9]: 99.3%
residual activity [10]: 95.2%
residual activity [11]: 98.9%
residual activity [12]: 104%
residual activity [13]: 109%
residual activity [14]: 95.9%
residual activity [15]: 106%
residual activity [17]: 99.8%
residual activity [18]: 103%
residual activity [19]: 99.7%
residual activity [20]: 94.3%
residual activity [21]: 87.2%
residual activity [22]: 99.6%
residual activity [23]: 97.4%
residual activity [24]: 111%
residual activity [25]: 104%
residual activity [26]: 87.3%
residual activity [27]: 100%
residual activity [28]: 96.4%
residual activity [29]: 99.6%
residual activity [30]: 33.9%
residual activity [31]: 111%
residual activity [42]: 108%
residual activity [32]: 109%
residual activity [33]: 103%
residual activity [34]: 102%
residual activity [35]: 108%
residual activity [36]: 99.2%
residual activity [37]: 98.1%
residual activity [38]: 97.6%
residual activity [39]: 96.3%
residual activity [40]: 105%
residual activity [41]: 109%

N/C(=N\N=C/c1ccc(-c2cccc([N+](=O)[O-])c2)o1)N[N+](=O)[O-]
residual activity [1]: 86.3%
residual activity [2]: 96.5%
residual activity [3]: 86%
residual activity [4]: 94.6%
residual activity [5]: 94.3%
residual activity [6]: 102%
residual activity [7]: 87.3%
residual activity [8]: 89.3%
residual activity [9]: 97.7%
residual activity [10]: 95.3%
residual activity [11]: 129%
residual activity [12]: 100%
residual activity [13]: 96.4%
residual activity [14]: 92.3%
residual activity [15]: 102%
residual activity [17]: 93.8%
residual activity [18]: 103%
residual activity [19]: 94.7%
residual activity [20]: 99.2%
residual activity [21]: 95.1%
residual activity [22]: 88.1%
residual activity [23]: 91.4%
residual activity [24]: 98.7%
residual activity [25]: 101%
residual activity [26]: 91.2%
residual activity [27]: 109%
residual activity [28]: 93.6%
residual activity [29]: 100%
residual activity [30]: 111%
residual activity [31]: 98.9%
residual activity [42]: 98.3%
residual activity [32]: 101%
residual activity [33]: 97.8%
residual activity [34]: 94.9%
residual activity [35]: 106%
residual activity [36]: 96.6%
residual activity [37]: 90.9%
residual activity [38]: 91.8%
residual activity [39]: 91.7%
residual activity [40]: 95.1%
residual activity [41]: 96.3%
